Results on 1 molecule are retold here after BindingDB's records for patent US11299480 (University of Hawaii, 2022).

For this assay, the target named is Signal transducer and activator of transcription 3 (Homo sapiens, UniProt P40763). Put plainly: In Vitro Assay. As for the experimental part:
Except where indicated, nuclear extracts were pre-incubated with compound for 30 min at room temperature prior to incubation with the radiolabeled probe for 30 min at 30° C. before subjecting to EMSA analysis. Where appropriate, bands corresponding to Stat3:DNA complexes were scanned and quantified for each concentration of compound using ImageJ and plotted as percent of control (DMSO) against concentration of compound, from which the IC50 values were derived.

Sequence of Signal transducer and activator of transcription 3 (P40763 whole entry): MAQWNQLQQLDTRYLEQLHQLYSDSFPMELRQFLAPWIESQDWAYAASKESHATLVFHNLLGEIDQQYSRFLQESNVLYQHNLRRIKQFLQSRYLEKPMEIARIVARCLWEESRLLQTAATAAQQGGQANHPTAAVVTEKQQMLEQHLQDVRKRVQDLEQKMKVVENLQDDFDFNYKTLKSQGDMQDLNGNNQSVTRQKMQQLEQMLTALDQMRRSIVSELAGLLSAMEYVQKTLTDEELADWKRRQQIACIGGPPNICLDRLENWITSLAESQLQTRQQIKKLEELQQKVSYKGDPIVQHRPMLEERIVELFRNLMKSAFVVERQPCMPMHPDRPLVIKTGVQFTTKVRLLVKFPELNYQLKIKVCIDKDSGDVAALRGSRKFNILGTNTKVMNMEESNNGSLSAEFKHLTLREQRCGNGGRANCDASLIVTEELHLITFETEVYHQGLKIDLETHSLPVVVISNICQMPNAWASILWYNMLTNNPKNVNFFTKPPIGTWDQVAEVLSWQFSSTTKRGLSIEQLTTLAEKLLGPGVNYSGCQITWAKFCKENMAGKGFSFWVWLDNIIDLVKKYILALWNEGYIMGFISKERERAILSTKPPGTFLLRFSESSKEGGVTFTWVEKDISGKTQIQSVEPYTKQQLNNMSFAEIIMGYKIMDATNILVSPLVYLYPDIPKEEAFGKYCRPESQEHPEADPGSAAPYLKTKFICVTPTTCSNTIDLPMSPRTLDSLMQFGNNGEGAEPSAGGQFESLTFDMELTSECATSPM

With `O=C(O)c1ccc(N(Cc2cnc(C3CCCCC3)cn2)C(=O)[C@H]2CCN2S(=O)(=O)c2c(F)c(F)c(F)c(Cl)c2F)cc1O` [US11299480, Example 152], the concentration for half-maximal inhibition (IC50) is 422 nM.

Broadly, the IC50 is the point on the concentration scale where inhibition reaches its midpoint.
